Data set [1] concerns NCI-H1975. Briefly: Inhibition of cell growth in 3D-cultured human Osimertinib-resistant NCI-H1975 cell by DAPI and PI staining based analysis. It counts as functional. The following applies: dose 0.049-3.125 µM.
For data set [2], the system named is NCI-H1975. Briefly: Downregulation of cleaved PARP level in human Osimertinib-resistant NCI-H1975 cell at 125 nM measured after 16 hrs in presence of osimertinib by Western blot analysis. It counts as functional, cell-based. (In western blotting, separated proteins are transferred to a membrane and probed.)
Data set [3] can be described thus: Toxicity in ICR mouse assessed as abnormalities in kidney at 1000 mg/kg, po measured after 9 days by H and E staining based analysis. The following applies: in vivo, 216 h, time 9 day. The class given is organism-based.
In data set [4] the test system is Epidermal growth factor receptor (Homo sapiens), P00533 [L858R,T790M,C797S]. Kind of data set: Inhibition of EGFR T790M/C797S/L858R triple mutant (unknown origin) at 2500 nM preincubated for 10 mins followed by substrate addition and measured after 60 mins in presence of ATP by ADP-Glo reagent based assay relative to control. Particulars: time 70.0 min.
Sequence of Epidermal growth factor receptor (Homo sapiens), P00533 [L858R,T790M,C797S] (P00533 whole entry T790M/C797S/L858R): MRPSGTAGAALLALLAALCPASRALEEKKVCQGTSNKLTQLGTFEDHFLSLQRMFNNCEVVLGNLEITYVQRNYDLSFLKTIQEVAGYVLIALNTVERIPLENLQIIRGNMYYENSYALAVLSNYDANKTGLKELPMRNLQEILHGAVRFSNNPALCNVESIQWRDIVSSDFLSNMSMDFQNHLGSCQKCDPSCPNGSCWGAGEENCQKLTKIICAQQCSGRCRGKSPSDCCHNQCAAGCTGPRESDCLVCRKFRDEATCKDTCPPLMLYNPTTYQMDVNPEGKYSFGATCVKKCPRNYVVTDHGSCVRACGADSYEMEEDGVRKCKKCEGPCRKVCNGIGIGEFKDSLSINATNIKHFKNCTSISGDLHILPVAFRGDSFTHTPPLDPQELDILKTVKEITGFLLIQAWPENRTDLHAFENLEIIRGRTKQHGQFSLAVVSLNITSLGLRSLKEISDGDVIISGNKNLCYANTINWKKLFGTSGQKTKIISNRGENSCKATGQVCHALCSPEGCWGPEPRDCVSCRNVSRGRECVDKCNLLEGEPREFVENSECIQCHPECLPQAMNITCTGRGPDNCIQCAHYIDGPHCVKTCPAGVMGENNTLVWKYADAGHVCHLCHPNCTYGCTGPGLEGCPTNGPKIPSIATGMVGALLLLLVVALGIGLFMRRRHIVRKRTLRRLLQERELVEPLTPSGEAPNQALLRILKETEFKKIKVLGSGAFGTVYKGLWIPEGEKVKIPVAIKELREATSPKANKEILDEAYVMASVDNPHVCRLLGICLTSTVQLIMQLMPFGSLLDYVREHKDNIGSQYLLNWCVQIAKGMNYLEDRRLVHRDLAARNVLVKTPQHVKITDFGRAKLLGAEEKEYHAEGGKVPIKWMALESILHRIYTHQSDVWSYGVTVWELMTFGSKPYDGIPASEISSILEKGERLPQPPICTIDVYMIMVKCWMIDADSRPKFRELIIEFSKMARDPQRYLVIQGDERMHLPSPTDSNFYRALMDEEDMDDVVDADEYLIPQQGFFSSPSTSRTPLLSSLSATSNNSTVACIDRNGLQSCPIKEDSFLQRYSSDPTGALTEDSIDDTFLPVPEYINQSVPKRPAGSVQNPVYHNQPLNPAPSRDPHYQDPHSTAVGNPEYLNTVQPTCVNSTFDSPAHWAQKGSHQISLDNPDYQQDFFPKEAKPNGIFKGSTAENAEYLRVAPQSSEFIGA
The test system of data set [5] is NCI-H1975. Briefly: Downregulation of cleaved caspase-3 level in human Osimertinib-resistant NCI-H1975 cell measured after 16 hrs by Western blot analysis. The class given is functional, cell-based. The following applies: dose 125-2000 nM.
Data set [6] deals with Cyclin-dependent kinase 4/cyclin D1 (Homo sapiens) (UniProt P11802+P24385). Kind of data set: Inhibition of CDK4/Cyclin D1 (unknown origin) at 200 nM preincubated for 10 mins followed by substrate addition and measured after 60 mins in presence of ATP by ADP-Glo reagent based assay relative to control. The class given is protein-complex assay. Particulars: time 70.0 min. On the technique in general: In ADP-Glo the light output rises with the ADP produced.

Data set [7] is described as follows: Toxicity in ICR mouse assessed as effect on physical appearance at 100 mg/kg, iv measured for 8 to 9 days. It counts as organism-based. Particulars: in vivo, time 8-9 day.
Data set [8] is described as follows: Antiproliferative activity against human Osimertinib-resistant NCI-H1975 cell incubated for 72 hrs by MTT assay. It counts as functional, cell-based. The following applies: NCI-H1975, 72 h. On the technique in general: Formazan colour is commonly taken as a measure of viable cells.
The nature of data set [9]: Antiproliferative activity against human Osimertinib-resistant NCI-H1975 cell assessed as cell growth inhibition incubated for 72 hrs by MTT assay. The class given is functional, cell-based. Particulars: NCI-H1975, 72 h.
Data set [10] addresses Mitogen-activated protein kinase 15 (Homo sapiens) (UniProt Q8TD08). Kind of data set: Inhibition of ERK7 (unknown origin) at 500 nM preincubated for 10 mins followed by substrate addition and measured after 60 mins in presence of ATP by ADP-Glo reagent based assay relative to control. Particulars: time 70.0 min.
The nature of data set [11]: Induction of apoptosis in human Osimertinib-resistant NCI-H1975 cell assessed as early apoptotic cells at 125 nM measured after 16 hrs in presence of osimertinib by Annexin V-FITC and PI staining based analysis (Rvb =1.78%). It counts as functional.
For data set [12], the target named is CDK9/cyclin T1 (Homo sapiens, UniProt P50750). Briefly: Inhibition of CDK9/Cyclin-T1 (unknown origin) preincubated for 10 mins followed by substrate addition and measured after 60 mins in presence of ATP by ADP-Glo reagent based assay. The class given is protein-complex assay.
Sequence of CDK9/cyclin T1 (O60563 whole entry): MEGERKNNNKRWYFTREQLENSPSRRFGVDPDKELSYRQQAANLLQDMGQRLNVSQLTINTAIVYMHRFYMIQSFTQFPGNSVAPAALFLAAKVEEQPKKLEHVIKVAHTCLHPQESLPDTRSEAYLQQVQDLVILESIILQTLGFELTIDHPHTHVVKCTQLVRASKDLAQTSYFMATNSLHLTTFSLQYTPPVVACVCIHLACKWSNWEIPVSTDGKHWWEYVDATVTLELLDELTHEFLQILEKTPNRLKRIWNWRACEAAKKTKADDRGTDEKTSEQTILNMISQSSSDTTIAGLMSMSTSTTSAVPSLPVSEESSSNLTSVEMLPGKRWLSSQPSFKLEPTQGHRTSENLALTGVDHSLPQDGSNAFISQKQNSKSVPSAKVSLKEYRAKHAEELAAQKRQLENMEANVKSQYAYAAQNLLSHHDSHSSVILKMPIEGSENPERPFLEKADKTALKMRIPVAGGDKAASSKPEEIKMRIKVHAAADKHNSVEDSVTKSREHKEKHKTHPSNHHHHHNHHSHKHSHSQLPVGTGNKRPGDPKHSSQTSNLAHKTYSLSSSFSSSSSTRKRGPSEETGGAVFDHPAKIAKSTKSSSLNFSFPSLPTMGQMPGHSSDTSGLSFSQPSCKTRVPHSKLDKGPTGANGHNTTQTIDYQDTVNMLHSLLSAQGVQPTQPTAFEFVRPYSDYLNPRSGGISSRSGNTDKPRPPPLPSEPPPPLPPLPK
Sequence of CDK9/cyclin T1 (P50750 whole entry): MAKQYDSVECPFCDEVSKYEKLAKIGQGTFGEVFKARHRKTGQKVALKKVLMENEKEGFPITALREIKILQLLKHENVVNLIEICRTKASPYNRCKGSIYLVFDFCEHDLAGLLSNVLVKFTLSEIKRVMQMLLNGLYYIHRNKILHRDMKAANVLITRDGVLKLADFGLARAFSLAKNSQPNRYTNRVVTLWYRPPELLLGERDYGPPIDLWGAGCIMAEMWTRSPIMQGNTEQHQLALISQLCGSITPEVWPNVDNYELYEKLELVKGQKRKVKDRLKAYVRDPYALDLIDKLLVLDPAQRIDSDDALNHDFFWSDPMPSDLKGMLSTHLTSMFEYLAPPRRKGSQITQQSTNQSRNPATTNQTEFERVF
Data set [13] has as its target BDNF/NT-3 growth factors receptor (Homo sapiens) (UniProt Q16620). Kind of data set: Inhibition of TRKB (unknown origin) at 500 nM preincubated for 10 mins followed by substrate addition and measured after 60 mins in presence of ATP by ADP-Glo reagent based assay relative to control. The following applies: time 70.0 min.
A short description of data set [14]: Induction of apoptosis in human Osimertinib-resistant NCI-H1975 cell assessed as viable cells at 500 nM measured after 16 hrs by Annexin V-FITC and PI staining based analysis (reference value: 94.9%). Particulars: read-out: Activity. The class given is functional.
The nature of data set [15]: Toxicity in ICR mouse assessed as abnormalities in spleen at 1000 mg/kg, po measured after 9 days by H and E staining based analysis. The following applies: in vivo, 216 h, time 9 day. It counts as organism-based.

Each structure is given as a SMILES string. The source made the active and inactive calls. The calls are words filed in the database; no cut-off is given here.

Sequence of BDNF/NT-3 growth factors receptor (Homo sapiens) (Q16620 32-822 limits assumed): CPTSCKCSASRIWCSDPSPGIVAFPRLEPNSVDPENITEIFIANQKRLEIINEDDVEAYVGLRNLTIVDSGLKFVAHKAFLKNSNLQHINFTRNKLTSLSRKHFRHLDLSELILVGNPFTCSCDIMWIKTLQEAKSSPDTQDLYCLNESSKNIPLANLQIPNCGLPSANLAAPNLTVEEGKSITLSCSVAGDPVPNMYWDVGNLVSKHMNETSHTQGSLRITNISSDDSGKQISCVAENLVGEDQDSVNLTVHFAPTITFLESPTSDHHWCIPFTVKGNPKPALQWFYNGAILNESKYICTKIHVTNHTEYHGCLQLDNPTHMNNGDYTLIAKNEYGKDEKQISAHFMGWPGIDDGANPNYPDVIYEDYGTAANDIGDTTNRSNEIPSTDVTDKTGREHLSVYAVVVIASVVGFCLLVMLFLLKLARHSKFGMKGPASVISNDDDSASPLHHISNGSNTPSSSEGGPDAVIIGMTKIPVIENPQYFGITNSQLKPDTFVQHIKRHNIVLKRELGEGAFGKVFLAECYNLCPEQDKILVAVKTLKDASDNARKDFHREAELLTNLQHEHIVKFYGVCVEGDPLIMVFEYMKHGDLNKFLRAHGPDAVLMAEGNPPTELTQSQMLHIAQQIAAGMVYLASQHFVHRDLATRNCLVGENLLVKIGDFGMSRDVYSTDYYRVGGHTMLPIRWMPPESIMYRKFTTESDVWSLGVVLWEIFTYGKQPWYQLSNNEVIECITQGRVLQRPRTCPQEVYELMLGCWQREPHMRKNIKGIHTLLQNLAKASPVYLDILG
Sequence of Mitogen-activated protein kinase 15 (Homo sapiens) (Q8TD08 whole entry): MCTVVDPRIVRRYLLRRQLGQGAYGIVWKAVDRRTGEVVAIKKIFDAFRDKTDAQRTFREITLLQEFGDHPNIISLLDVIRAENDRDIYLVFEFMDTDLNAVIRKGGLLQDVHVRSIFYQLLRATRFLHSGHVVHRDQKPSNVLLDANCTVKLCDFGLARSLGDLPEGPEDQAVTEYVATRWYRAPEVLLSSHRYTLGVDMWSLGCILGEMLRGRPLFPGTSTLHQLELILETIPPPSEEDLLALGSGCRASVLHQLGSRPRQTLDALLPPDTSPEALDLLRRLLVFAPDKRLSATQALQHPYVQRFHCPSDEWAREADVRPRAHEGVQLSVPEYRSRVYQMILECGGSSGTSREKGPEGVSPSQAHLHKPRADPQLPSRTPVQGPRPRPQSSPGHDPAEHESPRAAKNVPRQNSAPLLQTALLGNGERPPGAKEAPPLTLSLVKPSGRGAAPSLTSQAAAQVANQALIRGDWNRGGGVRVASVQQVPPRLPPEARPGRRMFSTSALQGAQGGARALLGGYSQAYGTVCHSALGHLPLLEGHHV

On to `O=C(NCCN1CCOCC1)c1ccc2cc1OCCCCCCOc1cc(ccc1F)-c1nc(ncc1F)N2`, for which the inhibition result was “Dose-Dependent Effect” in [1]; 33.3% in data set [4]; 32.1% in data set [6]; 83.5% in [10]; 80.7% in [13]. Also, the result in [2] was Active. Further, the Activity entry in data set [3] is “Non-Toxic”; in data set [5], “Dose-Dependent Effect”; in data set [7], “Non-Toxic”; in data set [11], 3.15%; in [15] it was “Non-Toxic”. Further, the results for the IC50 in [8], in data set [9] and in data set [12] were 251 nM, 190 nM and 3.2 nM, respectively. Also, the viability at 0.5 µM in [14] is 75.6%.

Broadly, the inhibition is the change of the read-out against control, counted positive when it falls. The IC50 is the concentration that gives 50% inhibition.

Values taken from ChEMBL document CHEMBL5390253, “Discovery of Selective and Potent Macrocyclic CDK9 Inhibitors for the Treatment of Osimertinib-Resistant Non-Small-Cell Lung Cancer” (J Med Chem, 2023).
